The values below come from patent US20180251431A1 (VERTEX PHARMACEUTICALS INCORPORATED, priority 2016, published 2018).

A value given as a limit tells only on which side of the number the result lay.

The subject of this test is HEK293 cells. The test is described as follows: HEK293 VLCFA-LPC IC50 determination (13C-labeled C26:0 LPC by UHPLC/MS). In kind it is cell-based, human. Particulars: Homo sapiens, HEK293, HEK293 cells; average of one or more replicates; read-out: Average HEK293 IC50. The procedure, abridged: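 Suspension HEK293 cells (final 0.5 million/mL after mixing with equal volume) incubated 48 hours with compound plus 13C-acetate (1.0 mg/mL in added media), shaking at 37° C. Lipids extracted with hexane/isopropanol or methanol, C13:0 LPC standard. UHPLC/MS of 13C-labeled C26:0 LPC (638.500/104.100 m/z); IC50 by four-parameter fit.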

By IC50 is commonly meant the concentration that gives 50% inhibition. Turning to `O=C(Nc1ccn(-c2ccnc(F)c2)n1)C1(c2ccccc2)CCOCC1` [Compound 174, N-[1-(2-fluoro-4-pyridyl)pyrazol-3-yl]-4-phenyl-tetrahydropyran-4-carboxamide], the IC50 was more than 5000 nM.

On to `O=C(Nc1ccn(-c2ccnc(F)c2)n1)C(c1ccccc1)C1CC1` (centres unmarked) [Compound 175, 2-cyclopropyl-N-[1-(2-fluoro-4-pyridyl)pyrazol-3-yl]-2-phenyl-acetamide], for which the IC50 turned out to be 520 nM.

As to `CCCC(C(=O)Nc1ccn(-c2ccccc2)n1)c1ccccc1` (centres unmarked) [Compound 176, 2-phenyl-N-(1-phenylpyrazol-3-yl)pentanamide], the IC50 amounted to 870 nM.

Take `O=C(Nc1ccn(-c2ccccc2)n1)C1(c2ccccc2)CC(F)(F)C1` [Compound 177, 3,3-difluoro-1-phenyl-N-(1-phenylpyrazol-3-yl)cyclobutanecarboxamide]: the IC50 was determined as 790 nM.

On to `O=C(Nc1ccn(-c2ccccc2)n1)C1(c2ccccc2)CCOCC1` [Compound 178, 4-phenyl-N-(1-phenylpyrazol-3-yl)tetrahydropyran-4-carboxamide], for which the IC50 is more than 5000 nM.

On to `O=C(Nc1ccn(-c2ccccc2)n1)C(c1ccccc1)C1CC1` (centres unmarked) [Compound 179, 2-cyclopropyl-2-phenyl-N-(1-phenylpyrazol-3-yl)acetamide], for which the IC50 turned out to be 1600 nM.

Consider `O=C(Nc1ccn(-c2cncc(F)c2)n1)C1(c2ccccc2F)CC1` [Compound 180, 1-(2-fluorophenyl)-N-[1-(5-fluoro-3-pyridyl)pyrazol-3-yl]cyclopropanecarboxamide], for which the IC50 was found to be 20 nM.

For `O=C(Cc1ccccc1)Nc1ccn(-c2ccc(F)cc2)n1` [Compound 181, N-[1-(4-fluorophenyl)pyrazol-3-yl]-2-phenyl-acetamide], the half-inhibitory concentration (IC50) amounted to 250 nM.

Turning to `O=C(Nc1ccn(-c2ccc(F)cc2)n1)C1(c2ccccc2F)CC1` [Compound 182, 1-(2-fluorophenyl)-N-[1-(4-fluorophenyl)pyrazol-3-yl]cyclopropanecarboxamide], the IC50 amounted to 74 nM.

Consider `O=C(Cc1ccccc1F)Nc1ccn(-c2ccc(F)cc2)n1` [Compound 183, 2-(2-fluorophenyl)-N-[1-(4-fluorophenyl)pyrazol-3-yl]acetamide], for which the IC50 was 170 nM.

For the compound `O=C(Nc1ccn(-c2ccc(F)cc2)n1)C1(c2ccccc2)CC1` [Compound 184, N-[1-(4-fluorophenyl)pyrazol-3-yl]-1-phenyl-cyclopropanecarboxamide], the half-inhibitory concentration (IC50) stood at 280 nM.

Take `O=C(Cc1ccccc1)Nc1ccn(-c2ccccc2F)n1` [Compound 185, N-[1-(2-fluorophenyl)pyrazol-3-yl]-2-phenyl-acetamide]: the IC50 was determined as 470 nM.

For the compound `O=C(Nc1ccn(-c2ccccc2F)n1)C1(c2ccccc2F)CC1` [Compound 186, 1-(2-fluorophenyl)-N-(1-(2-fluorophenyl)-1H-pyrazol-3-yl)cyclopropane-1-carboxamide], the IC50 was 140 nM.

As to `O=C(Cc1ccccc1F)Nc1ccn(-c2ccccc2F)n1` [Compound 187, 2-(2-fluorophenyl)-N-[1-(2-fluorophenyl)pyrazol-3-yl]acetamide], the IC50 was determined as 520 nM.

For the compound `O=C(Nc1ccn(-c2ccccc2F)n1)C1(c2ccccc2)CC1` [Compound 188, N-[1-(2-fluorophenyl)pyrazol-3-yl]-1-phenyl-cyclopropanecarboxamide], the IC50 turned out to be 140 nM.

Consider `O=C(Cc1ccccc1)Nc1ccn(-c2ccc(F)c(F)c2)n1` [Compound 189, N-[1-(3,4-difluorophenyl)pyrazol-3-yl]-2-phenyl-acetamide], for which the IC50 was 230 nM.

Take `O=C(Nc1ccn(-c2ccc(F)c(F)c2)n1)C1(c2ccccc2F)CC1` [Compound 190, N-[1-(3,4-difluorophenyl)pyrazol-3-yl]-1-(2-fluorophenyl)cyclopropanecarboxamide]: the IC50 was determined as 150 nM.

As to `O=C(Cc1ccccc1F)Nc1ccn(-c2ccc(F)c(F)c2)n1` [Compound 191, N-[1-(3,4-difluorophenyl)pyrazol-3-yl]-2-(2-fluorophenyl)acetamide], the IC50 is 240 nM.

Consider `O=C(Nc1ccn(-c2ccc(F)c(F)c2)n1)C1(c2ccccc2)CC1` [Compound 192, N-[1-(3,4-difluorophenyl)pyrazol-3-yl]-1-phenyl-cyclopropanecarboxamide], for which the IC50 was 600 nM.

Regarding `O=C(Cc1ccccc1)Nc1ccn(-c2ccc(Cl)c(F)c2)n1` [Compound 193, N-[1-(4-chloro-3-fluoro-phenyl)pyrazol-3-yl]-2-phenyl-acetamide], the IC50 is more than 5000 nM.

With `O=C(Nc1ccn(-c2ccc(Cl)c(F)c2)n1)C1(c2ccccc2F)CC1` [Compound 194, N-[1-(4-chloro-3-fluoro-phenyl)pyrazol-3-yl]-1-(2-fluorophenyl)cyclopropanecarboxamide], the IC50 is more than 5000 nM.

For the compound `O=C(Cc1ccccc1F)Nc1ccn(-c2ccc(Cl)c(F)c2)n1` [Compound 195, N-[1-(4-chloro-3-fluoro-phenyl)pyrazol-3-yl]-2-(2-fluorophenyl)acetamide], the IC50 is more than 2000 nM.

For the compound `O=C(Nc1ccn(-c2ccc(Cl)c(F)c2)n1)C1(c2ccccc2)CC1` [Compound 196, N-[1-(4-chloro-3-fluoro-phenyl)pyrazol-3-yl]-1-phenyl-cyclopropanecarboxamide], the IC50 was more than 5000 nM.

As for `O=C(Cc1ccccc1)Nc1ccn(-c2ccc(F)c(Cl)c2)n1` [Compound 197, N-[1-(3-chloro-4-fluoro-phenyl)pyrazol-3-yl]-2-phenyl-acetamide], the IC50 is more than 5000 nM.

Regarding `O=C(Nc1ccn(-c2ccc(F)c(Cl)c2)n1)C1(c2ccccc2F)CC1` [Compound 198, N-[1-(3-chloro-4-fluoro-phenyl)pyrazol-3-yl]-1-(2-fluorophenyl)cyclopropanecarboxamide], the IC50 turned out to be 720 nM.

For `O=C(Cc1ccccc1F)Nc1ccn(-c2ccc(F)c(Cl)c2)n1` [Compound 199, N-[1-(3-chloro-4-fluoro-phenyl)pyrazol-3-yl]-2-(2-fluorophenyl)acetamide], the IC50 is more than 5000 nM.

As to `O=C(Nc1ccn(-c2ccc(F)c(Cl)c2)n1)C1(c2ccccc2)CC1` [Compound 200, N-[1-(3-chloro-4-fluoro-phenyl)pyrazol-3-yl]-1-phenyl-cyclopropanecarboxamide], the concentration for half-maximal inhibition (IC50) amounted to 700 nM.

As to `O=C(Nc1ccn(-c2cncc(F)c2)n1)C1(c2ccccc2)CC1` [Compound 201, N-[1-(5-fluoro-3-pyridyl)pyrazol-3-yl]-1-phenyl-cyclopropanecarboxamide], the IC50 stood at 46 nM.

As to `O=C(Nc1ccn(-c2ccnnc2)n1)C1(c2ccccc2F)CC1` [Compound 202, 1-(2-fluorophenyl)-N-(1-pyridazin-4-ylpyrazol-3-yl)cyclopropanecarboxamide], the IC50 is 95 nM.

`O=C(Cc1ccccc1F)Nc1ccn(-c2ccnc(F)c2)n1` [Compound 203, 2-(2-fluorophenyl)-N-[1-(2-fluoro-4-pyridyl)pyrazol-3-yl]acetamide]: the IC50 is 100 nM.

As to `O=C(Cc1ccccc1F)Nc1ccn(-c2cncc(F)c2)n1` [Compound 204, 2-(2-fluorophenyl)-N-[1-(5-fluoro-3-pyridyl)pyrazol-3-yl]acetamide], the IC50 stood at 97 nM.

On to `O=C(Cc1ccccc1)Nc1ccn(-c2cncc(F)c2)n1` [Compound 205, N-[1-(5-fluoro-3-pyridyl)pyrazol-3-yl]-2-phenyl-acetamide], for which the IC50 was determined as 720 nM.

With `O=C(Nc1ccn(-c2ccncn2)n1)C1(c2ccccc2F)CC1` [Compound 206, 1-(2-fluorophenyl)-N-(1-pyrimidin-4-ylpyrazol-3-yl)cyclopropanecarboxamide], the IC50 was determined as 34 nM.

For `O=C(Nc1ccn(-c2ccncn2)n1)C1(c2ccccc2)CC1` [Compound 207, 1-phenyl-N-(1-pyrimidin-4-ylpyrazol-3-yl)cyclopropanecarboxamide], the IC50 turned out to be 36 nM.

For the compound `O=C(Cc1ccccc1F)Nc1ccn(-c2ccncn2)n1` [Compound 208, 2-(2-fluorophenyl)-N-(1-pyrimidin-4-ylpyrazol-3-yl)acetamide], the half-maximal inhibitory concentration (IC50) amounted to 2300 nM.

Consider `O=C(Cc1ccccc1)Nc1ccn(-c2ccncn2)n1` [Compound 209, 2-phenyl-N-(1-pyrimidin-4-ylpyrazol-3-yl)acetamide], for which the IC50 was determined as 2300 nM.

Turning to `O=C(Nc1ccn(-c2ccccn2)n1)C1(c2ccccc2F)CC1` [Compound 210, 1-(2-fluorophenyl)-N-[1-(2-pyridyl)pyrazol-3-yl]cyclopropanecarboxamide], the IC50 was found to be 170 nM.

For `O=C(Cc1ccccc1F)Nc1ccn(-c2ccccn2)n1` [Compound 211, 2-(2-fluorophenyl)-N-[1-(2-pyridyl)pyrazol-3-yl]acetamide], the half-maximal inhibitory concentration (IC50) stood at 1700 nM.

Turning to `O=C(Nc1ccn(-c2ccccn2)n1)C1(c2ccccc2)CC1` [Compound 212, 1-phenyl-N-[1-(2-pyridyl)pyrazol-3-yl]cyclopropanecarboxamide], the IC50 amounted to 190 nM.

Regarding `O=C(Cc1ccccc1)Nc1ccn(-c2cccnc2)n1` [Compound 213, 2-phenyl-N-(1-(pyridin-3-yl)-1H-pyrazol-3-yl)acetamide], the concentration for half-maximal inhibition (IC50) stood at 1200 nM.

For the compound `O=C(Nc1ccn(-c2cccnc2)n1)C1(c2ccccc2F)CC1` [Compound 214, 1-(2-fluorophenyl)-N-[1-(3-pyridyl)pyrazol-3-yl]cyclopropanecarboxamide], the IC50 was 45 nM.

In the case of `O=C(Nc1ccn(-c2cnccn2)n1)C1(c2ccccc2F)CC1` [Compound 215, 1-(2-fluorophenyl)-N-(1-pyrazin-2-ylpyrazol-3-yl)cyclopropanecarboxamide], the IC50 came out at 610 nM.

For the compound `O=C(Cc1ccccc1F)Nc1ccn(-c2cnccn2)n1` [Compound 216, 2-(2-fluorophenyl)-N-(1-pyrazin-2-ylpyrazol-3-yl)acetamide], the IC50 is more than 5000 nM.

Turning to `O=C(Nc1ccn(-c2cncs2)n1)C1(c2ccccc2F)CC1` [Compound 217, 1-(2-fluorophenyl)-N-(1-thiazol-5-ylpyrazol-3-yl)cyclopropanecarboxamide], the IC50 stood at 84 nM.
